Data from US5039679A, “Certain derivatives of 1,4-dihydro-5-isopropoxy-1,6-naphthyridine-3-carboxylic acid, pharmaceutical compositions containing them, and methods of using them” (Goedecke Aktiengesellschaft, priority 1989, dated 1991).
Where a name gives a salt, the structure may show the parent alone. Read-outs that look alike come from different tables or passages of the source.

Experiments:
[1] = pharmacological results, blood pressure lowering activity compared with other derivatives; type: in vivo; conditions: in comparison with the other derivatives, in words
Description: The pharmacological results are even more marked in the case of the […] which were obtained according to the usual methods of racemate separation.

[2] = stress test, 2 weeks, heat or light (stability); type: physicochemical
Protocol: The hydrochloride is unstable even at ambient temperature and a stress test gave, after heating for 2 weeks at 45° C. in the dark, 10% of decomposition products and at ambient temperature in the light 30% of the compound had decomposed after 2 weeks.
In addition, it is also stable under the above-mentioned stress conditions (2 weeks at 45° C. in the dark and 2 weeks at ambient temperature in the light).

[3] = Solubility in water and artificial gastric juice (Table 1); type: physicochemical
[4] = system: Spontaneously Hypertensive Rats; test: blood pressure lowering after oral administration, Spontaneously Hypertensive Rats (Table 2); type: in vivo
Description: |Spontaneously Hypertensive Rats

[5] = animal experiments, commencement of activity; type: in vivo; conditions: in words
[6] = Spontaneously Hypertensive Rats, 1 mg/kg PO, n = 6, 1 mg/kg

degraded at 336 h ([2]; after heating for 2 weeks at 45° C. in the dark, read-out: decomposition products) [%] | degraded at 336 h ([2]; ambient temperature in the light, after 2 weeks, read-out: decomposed compound) [%] | stability ([2]; ambient temperature, in words) | Solubility in Artificial Gastric Juice [3] [%] | solubility in water ([3]; in words) | solubility in water ([3]; water) [%] | stability under stress conditions ([2]; 2 weeks at 45° C. in the dark and 2 weeks at ambient temperature in the light, in words) | Structure (SMILES) | blood pressure lowering activity [1] | blood pressure lowering action [4, 6] | commencement of activity [5] | commencement of activity ([4]; rats, oral administration, fumarate compared with hydrochloride, in words) | blood pressure lowering action ([4]; rats, oral, fumarate compared with hydrochloride, in words)
– | – | – | – | – | – | – | CC1=C(C(=O)OCCN(C)Cc2ccccc2)C(c2ccccc2C(F)(F)F)c2c(ccnc2OC(C)C)N1 (racemic) [(±), (±)-1,4-dihydro-5-isopropoxy-2-methyl-4-(2-trifluoromethylphenyl)-1,6-naphthyridine-3-carboxylic acid [2-(N-methyl-N-phenyl-methylamino)-ethyl] ester fumarate] | especially marked blood pressure lowering activity | – | – | – | –
10 | 30 | unstable | 20 | good solubility | 20 | – | CC1=C(C(=O)OCCN(C)Cc2ccccc2)C(c2ccccc2C(F)(F)F)c2c(ccnc2OC(C)C)N1 (single isomer, unassigned) [Hydrochloride, reference compound] | – | 17% ± 4.4 | very rapid commencement of activity | – | –
– | – | – | – | – | – | – | CC1=C(C(=O)OCCN(C)Cc2ccccc2)C(c2ccccc2C(F)(F)F)c2c(ccnc2OC(C)C)N1 (single isomer, unassigned; (+)) [(+)-1,4-dihydro-5-isopropoxy-2-methyl-4-(2-trifluoro-methylphenyl)-1,6-naphthyridine-3-carboxylic acid [2-(N-methyl-N-phenylmethylamino)-ethyl] ester] | Especially active | – | – | – | –
– | – | – | 1.5 | considerable lower water solubility | 0.1 | stable | CC1=C(C(=O)OCCN(C)Cc2ccccc2)C(c2ccccc2C(F)(F)F)c2c(ccnc2OC(C)C)N1 (single isomer, unassigned; (+)) [Fumarate, (+)-1,4-dihydro-5-isopropoxy-2-methyl-4-(2-trifluoromethylphenyl)1,6-naphthyridine-3-carboxylic acid [2-(N-methyl-N-phenyl-methylamino)-ethyl] ester fumarate] | – | 26% ± 1.7 | – | somewhat later | substantially stronger
